In publication doi:10.1101/2020.05.11.20064584v1 (medRxiv, 2020):
Like-named read-outs stand apart in the source and are kept apart here.

What was measured:
[1] = Rat pharmacokinetics, blood LL-37 by ELISA after gavage; assay type: in vivo, SD rats; conditions: male, SD, serum, po
[2] = Acute and subchronic toxicity test in rats; assay type: in vivo; conditions: SD rats, oral gavage, 100 times of the expected clinical dose
rVSV-SARS = conditions: 2 h, 10 ug/ml
[3] = 6.0E10/kg·day by gavage, end of two weeks, n=5, Mean ± SEM

## CC[C@H](C)[C@H](NC(=O)[C@H](CCCCN)NC(=O)[C@H](CCC(=O)O)NC(=O)[C@H](CCCCN)NC(=O)[C@H](CO)NC(=O)[C@H](CCCCN)NC(=O)[C@H](CCCNC(=N)N)NC(=O)[C@H](Cc1ccccc1)NC(=O)[C@H](Cc1ccccc1)NC(=O)[C@H](CC(=O)O)NC(=O)CNC(=O)[C@H](CC(C)C)NC(=O)[C@@H](N)CC(C)C)C(=O)NCC(=O)N[C@@H](CCCCN)C(=O)N[C@@H](CCC(=O)O)C(=O)N[C@@H](Cc1ccccc1)C(=O)N[C@@H](CCCCN)C(=O)N[C@@H](CCCNC(=N)N)C(=O)N[C@H](C(=O)N[C@H](C(=O)N[C@@H](CCC(N)=O)C(=O)N[C@@H](CCCNC(=N)N)C(=O)N[C@H](C(=O)N[C@@H](CCCCN)C(=O)N[C@@H](CC(=O)O)C(=O)N[C@@H](Cc1ccccc1)C(=O)N[C@@H](CC(C)C)C(=O)N[C@@H](CCCNC(=N)N)C(=O)N[C@@H](CC(N)=O)C(=O)N[C@@H](CC(C)C)C(=O)N[C@H](C(=O)N1CCC[C@H]1C(=O)N[C@@H](CCCNC(=N)N)C(=O)N[C@H](C(=O)N[C@@H](CCC(=O)O)C(=O)N[C@@H](CO)C(=O)O)[C@@H](C)O)C(C)C)[C@@H](C)CC)C(C)C)[C@@H](C)CC [LL-37]
[1]
  level at 1 h: 0.7 ng/mL
  level at 2 h: 1.65 ng/mL
  level at 4 h: 0.92 ng/mL
  level at 6 h: 0.14 ng/mL
[2]
  LD50: more than 6 × 10^10 CFU/kg/ day
rVSV-SARS
  maximum inhibition rate, rVSV-SARS: 85%
[3]; female SD rats
  CK: 715.56±343.35 U/L
  TC: 1.30 ± 0.20 mM
  TG: 0.33 ± 0.07 mM
[3]; male SD rats
  CK: 661.02±93.22 U/L
  TG: 0.29 ± 0.03 mM
